Test system: Penecillium Digitatum
Assay: Example 3, Trials 1-3: decay of inoculated clementine stored at room temp
Format: in vivo, Penecillium Digitatum on Clementine
Experimental: Fruits: Clementine; Inoculum: Penecillium Digitatum 10^5; Inoculation: 24 hours prior to treatment.
Storage: Cartons of fruit from all the treatments were stored for several days at room temp to monitor fruit spoilage and treatment efficacy.

Structure (SMILES): CC(=O)OO [PAA, peracetic acid]
- % decay (waste) 9 days at room temp (Trial 3, PAA 150 ppm only): 36%

Structure (SMILES): C=CCOC(Cn1ccnc1)c1ccc(Cl)cc1Cl (stereo not drawn) [IMZ, imazalil]
- % decay (waste) 12 days at room temp (Trial 1, IMZ 250 ppm, PAA 0, ACIDS 0): 55%
- % decay (waste) 9 days at room temp (Trial 2, IMZ 250 ppm, PAA 0, ACIDS 0): 40%
- % decay (waste) 9 days at room temp (Trial 2, IMZ 500 ppm, PAA 0, ACIDS 0): 19%
- % decay (waste) 9 days at room temp (Trial 3, IMZ 250 ppm, PAA 0, ACIDS 0): 35%
- % decay (waste) 9 days at room temp (Trial 3, IMZ 500 ppm, PAA 0, ACIDS 0): 24%

— patent US20230263168A1, “COMBINED FUNGICIDAL PREPARATIONS AND METHODS FOR USING THEREOF” (SAVE FOODS LTD., priority 2020, published 2023)
